# Data: US20090156565A1, “COMPOSITION AND USE THEREOF IN ENHANCING A THERAPEUTIC EFFECT OF AN ANTIEPILEPTIC DRUG” (priority 2004, published 2009)
# Where two headings read alike, the source gives them in different places.
# How the values were obtained:
# [1] = system: maximal electricroshock-induced seizures; conditions: cited from earlier work; for protective activity of clonazepam against maximum electroshock: co-administration
# [2] = system: pilocarpine induced status-epilepticus; assay: Pilocarpine induced status-epilepticus in rats, mifepristone pretreatment, repeated diazepam doses until seizures stop; format: in vivo, Adult male Sprague-Dawley rats; conditions: for cumulative diazepam dose required to stop behavioral seizures (mean ±SEM): diazepam 6 mg/kg 1 h after SE, then 3 mg/kg every two hours
# Experimental: Mifepristone is a yellow powdery substance and is available commercially (Sigma, St. Louis, Mo.). Adult male Sprague-Dawley rats were implanted with electrodes in CA1 and frontal cortex. After one week of recovery, rats were put in recording cages and connected to EEG monitoring system for continuous video-EEG recording. Rats were then treated with mifepristone (25 mg/kg body weight) one hour before the pilocarpine injection. Thirty minutes later rats were treated with scopalamine (1 mg/kg body weight) to reduce peripheral side effects of pilocarpine. Rats were injected with pilocarpine (385 mg/kg body weight) 30 minutes after the scopalamine injection to induce status-epilepticus. One hour after declared status-epilepticus, rats were treated with diazepam (6 mg/kg) to stop the seizures. Every two hours rats were monitored for signs of behavioral seizures and if required they were injected with 3 mg/kg diazepam until they completely stop seizing. The process was repeated until the rats completely stopped seizing. […] This example was presented by inventors in an article titled “Effects of Glucocorticoid Receptor Activity on Diazepam Efficacy in Terminating Status-Epilepticus in Adult Rats,” Epilepsia Vol. 45, Suppl. 7, page 146, October, 2004.
# The histogram represents mean (±SEM) cumulative diazepam dose (mg/kg body weight) required to stop behavioral seizures.
# [3] = system: pilocarpine induced status-epilepticus; assay: Pilocarpine induced status-epilepticus in rats, mifepristone pretreatment, single diazepam dose, behavioral seizures (Racine stage); format: in vivo; conditions: not pretreated with mifepristone; single diazepam dose 7.5 mg/kg given 30 minutes after status-epilepticus; n=5
# [4] = system: status epilepticus; assay: Mifepristone given 15 minutes after onset of SE, diazepam after 1 hour, hourly monitoring for behavioral seizures; format: in vivo, rats; conditions: for rats that stopped seizing: 5 and 6 hours after DZ treatment
# Experimental: In this experiment, mifepristone was given 15 minutes after onset of SE, but prior to administering the first dose of diazepam (DZ). Diazepam (7.5 mg/kg) was given after 1 hour of onset of SE. After DZ treatment, rats were monitored hourly for behavioral seizures.
# [5] = system: pilocarpine induced status-epilepticus; assay: EEG (cortex and hippocampus) 24 hours after pilocarpine injection; format: in vivo; conditions: rats that received mifepristone versus rats without treatment
smiles,measurement,setting,value
"CC(=O)O[C@]1(C(C)=O)CC[C@H]2[C@@H]3C=C(Cl)C4=CC(=O)[C@@H]5C[C@@H]5[C@]4(C)[C@H]3CC[C@@]21C [CYP, cyproterone acetate]",protective activity of clonazepam against maximum electroshock,[1]; male mice,improved
"CC/C(=C(\c1ccccc1)c1ccc(OCCN(C)C)cc1)c1ccccc1 [TXF, tamoxifen]",protective activity of clonazepam against maximum electroshock,[1]; female mice,improved
CN1C(=O)CN=C(c2ccccc2)c2cc(Cl)ccc21 [diazepam],cumulative diazepam dose required to stop behavioral seizures (mean ±SEM),"[2]; rats that did not receive mifepristone, ±0.5, n=20",10.2 mg/kg
same,rats that stopped seizing by 4 hours,[3],1/5
same,rats that stopped seizing,"[4]; diazepam 7.5 mg/kg, rats not receiving mifepristone",33%
"CC#C[C@]1(O)CC[C@H]2[C@@H]3CCC4=CC(=O)CCC4=C3[C@@H](c3ccc(N(C)C)cc3)C[C@@]21C [mifepristone, 17-beta-hydroxy-11-beta-(4-dimethyl-aminophenyl)-17-alpha(1-propynyl)-estra-4,9-dien-3-one]",lower cumulative diazepam dose to terminate behavioral seizures compared to rats not pretreated with mifepristone,"[2]; mifepristone pretreatment before pilocarpine, P<0.0005",26.5%
same,cumulative diazepam dose required to stop behavioral seizures (mean ±SEM),"[2]; rats pretreated with mifepristone 25 mg/kg one hour before pilocarpine, ±0.41, n=14, p<0.0005",7.5 mg/kg
same,frequency of spike-wave discharges and seizure recurrence,[5],lower frequency of spike-wave discharges and seizure recurrence
same,"rats that had stopped seizing, compared to rats that did not receive mifepristone","[4]; 3 to 6 hours after DZ treatment, mifepristone 15 minutes after onset of SE, diazepam 7.5 mg/kg 1 hour after onset",significantly more
same,rats that stopped seizing,"[4]; mifepristone 15 minutes after onset of SE plus diazepam 7.5 mg/kg, p<0.018, Kaplan-Meier",100%
same,effect on protective action of antiepileptic drugs against maximal electroshock-induced seizures,"[1]; in combination with clonazepam, carbamazepine, phenobarbital, mice",failed to affect their protective action
same,effect on electrically-induced seizures,"[1]; used alone, mice",no effect
